{"source": "patent US20240189388A1", "about": "“MEDICATION FOR TREATING LUNG INJURY” (SHANGHAI SEME CELL TECHNOLOGY CO., LTD., priority 2021, published 2024)", "key": {"[1]": {"experiment": "Body weight of rats after LPS modeling (Example 1)", "type": "in vivo", "description": "(§1) Normal adult male SD rats were randomly grouped, 5 rats in each group. The animals were intraperitoneally injected and nebulized in the trachea with lipopolysaccharides (LPS) as a modeling reagent, as shown in Table 1:\n(§2) The animals in groups G1 and G2 were intraperitoneally injected with lipopolysaccharides (0.8 mg/kg. body weight) according to their body weight, anesthetized by inhaling isoflurane after 16 h of the intraperitoneal injection, and nebulized with lipopolysaccharides (5 mg/kg. body weight) in the trachea.\n(§3) The animals were administered for the first time within 1 h after the intratracheal nebulization with the modeling reagent (LPS), and the second time after 24 h.\nBefore grouping, the animals were weighed on the day of modeling and the day of administration of samples; and the animals were also weighed when they were found dead or on the brink of euthanasia."}, "[2]": {"tested_on": "LPS-induced acute respiratory distress syndrome", "experiment": "Histopathological examination of lung, HE staining, LPS-induced ARDS rat model (Example 1)", "type": "in vivo, SD rats", "parameters": "key to Pulmonary pathological score, Inflammation, Sited 1 / Pulmonary pathological score, Inflammation, Sited 2 / Pulmonary pathological score, Inflammation, Sited 3 / Pulmonary pathological score, Alveolar wall thickness, Sited 1 / Pulmonary pathological score, Alveolar wall thickness, Sited 2 / Pulmonary pathological score, Alveolar wall thickness, Sited 3: 0: NA; 1: Slight; 2: Moderate; 3: Severe; Pulmonary pathological score, Mean of total / Pulmonary pathological score, Inflammation, Mean / Pulmonary pathological score, Alveolar wall thickness, Mean / Pulmonary pathological score, Total: scale not given here", "description": "as §1, §2, §3\nAfter the bronchoalveolar lavage fluid was collected from all the animals, the chest cavity was opened to take the right lung. The lung was infused with formalin by using an injection needle, fixed in a 10% neutral buffer formalin solution, followed by paraffin embedding, slicing, section preparation, and HE staining for pathological morphological observation of lung tissues. Professional pathologists carried out pathological testing on the lung tissues."}, "rats with a lung injury [3]": {"tested_on": "rats with a lung injury", "experiment": "Survival test, LPS lung injury rats (Example 2)", "type": "in vivo, Sprague-Dawley rats", "details": "test sample group, 0.75 mg/kg intravenous, 6 rats", "description": "Animal grouping: 18 qualified male animals were randomly divided into a normal control group, a model control group, and a test sample group according to their body weight measured before grouping, with 6 animals per group.\n(§4) D0: The animals in the normal control group were intraperitoneally injected with sodium chloride injection (1 ml/kg), while the animals in other groups were intraperitoneally injected with lipopolysaccharides (1 mg/kg, 1 ml/kg).\n(§5) D1: After 16 h (+30 min) of intraperitoneal injection, the animals were anesthetized by inhaling isoflurane. The animals in the normal control group were nebulized with sodium chloride injection (1 mL/kg) in the trachea, while the animals in other groups were nebulized with lipopolysaccharides (5 mg/kg, 1 ml/kg) in the trachea.\nD1: About 3 h to 5 h after the intratracheal nebulization of the modeling reagent (LPS), the animals were administrated with the test sample or solvent according to the following table 8: […]\nAfter planned euthanasia, a rate of a quantity of live animals in each group to a total quantity of animals in each group in an experimental period was calculated.\nSurvival rate (%)=the quantity of live animals in a group/the total quantity of animals in the group×100%."}, "rats with a lung injury [4]": {"tested_on": "rats with a lung injury", "experiment": "Inflammatory factors in serum (Example 2)", "type": "in vivo, Sprague-Dawley rats", "description": "as §4, §5\n(§6) Administration frequency and duration: On D1, the animals were administered for the first time within 3 h after the intratracheal nebulization with the modeling reagent (LPS); and on D2, the animals were administered for the second time. The interval between the two administrations was about 24 h (+20 min).\nCollection of blood sample: About 1 mL of abdominal aortic blood of each animal was collected into a centrifuge tube containing a separation gel and a coagulant.\nTreatment of blood sample: After collection, the blood sample was stored and transported at room temperature, and centrifuged within 2 hours under the conditions: 3000 g, room temperature, and 10 minutes. The serum after centrifugation was transferred to a new labeled centrifuge tube and divided into 2 tubes, which were temporarily stored below −60° C. At the end of the experiment, inflammatory factors (IL-1β, IL-6, IL-10, and TNF-α) in the serum were tested by a reagent kit. The blood sample was managed by the Watson LIMS7.5 system."}, "rats with a lung injury [5]": {"tested_on": "rats with a lung injury", "experiment": "Histopathological examination of lung, 5-grade method (Example 2)", "type": "in vivo, Sprague-Dawley rats", "description": "as §4, §5, §6\nGeneral observation: All animals in each group (including dead animals) were dissected and their tissues were stored. The animals that died during non-working hours were stored in the 2° C.-8° C. refrigerator and dissected as soon as possible within 24 hours. After dissecting and retaining tissues, animal carcasses were disposed of as medical waste.\nDuring the autopsy, whether the lungs, trachea, and bronchi of the animals were abnormal were observed. The middle lobe of the right lung was incised and weighed for calculating a wet/dry weight ratio. The remaining tissues and bronchi of the right lung were fixed in a 10% neutral buffered formalin solution, followed by paraffin embedding, slicing, section preparation, and HE staining for pathological morphological observation of lung tissues. Standard terminologies were used for diagnosis and classification, and the lung tissues were pathologically examined by a 5-grade method (slight, mild, moderate, obvious, and severe)."}, "[6]": {"details": "G2 compared to model control group G1"}, "[7]": {"details": "mean of 3 sites per animal G2-1 to G2-5, 1 mg/kg"}, "[8]": {"details": "single animals G2-1 to G2-5, 1 mg/kg, score 0-3"}, "[9]": {"details": "D3, 0.75 mg/kg i.v. twice, 6 rats, x ± SD"}, "[10]": {"details": "test sample group vs model control group"}, "[11]": {"details": "++ = mild, test sample group, 6 rats, 0.75 mg/kg"}, "[12]": {"details": "+++ = moderate, test sample group, 6 rats, 0.75 mg/kg"}, "[13]": {"details": "++++ = obvious, test sample group, 6 rats, 0.75 mg/kg"}, "[14]": {"details": "+++++ = severe, test sample group, 6 rats, 0.75 mg/kg"}, "[15]": {"details": "− = no lesion, test sample group, 6 rats, 0.75 mg/kg"}}, "note": "Values joined by “and” are separate entries in the source; they are usually repeats but may differ in a detail not shown here. Identical values can stand only once."}
{"substance": "Annexin A5", "values": [{"measurement": "Body weight, Day 0", "setting": "[1]; G2 mean, 5 rats, 1 mg/kg caudal vein injection, Day 0", "result": 254.49, "unit": "g"}, {"measurement": "Body weight, Day 1", "setting": "[1]; G2 mean, 5 rats, 1 mg/kg caudal vein injection, Day 1", "result": 240.80, "unit": "g"}, {"measurement": "Body weight, Day 2", "setting": "[1]; G2 mean, 5 rats, 1 mg/kg caudal vein injection, Day 2", "result": 224.36, "unit": "g"}, {"measurement": "Body weight, Day 3", "setting": "[1]; G2 mean, 5 rats, 1 mg/kg caudal vein injection, Day 3", "result": 241.86, "unit": "g"}, {"measurement": "Body weight compared between groups", "setting": "[1]; after LPS modeling, G2 vs G1", "result": "no significant difference between the groups"}, {"measurement": "Effect on LPS-induced acute respiratory distress syndrome (pathological analysis)", "setting": "[2]; [6]", "result": "significant improvement"}, {"measurement": "Lung injury in stained pathological sections (FIG. 4)", "setting": "[2]; [6]", "result": "significantly improved"}, {"measurement": "Pulmonary pathological score, Mean of total", "setting": "[2]; group G2, 5 rats, 1 mg/kg", "result": 2.33}, {"measurement": "Pulmonary pathological score, Alveolar wall thickness, Mean", "setting": "[2]; [7]", "result": "0.67 (3×) and 1.00 and 1.33"}, {"measurement": "Pulmonary pathological score, Inflammation, Mean", "setting": "[2]; [7]", "result": "1.67 and 2.00 and 1.33 (2×) and 1.00"}, {"measurement": "Pulmonary pathological score, Total", "setting": "[2]; per animal G2-1 to G2-5, 1 mg/kg", "result": "2.33 (2×) and 3.00 and 2.00 (2×)"}, {"measurement": "Pulmonary pathological score, Alveolar wall thickness, Sited 1", "setting": "[2]; [8]", "result": "0 (2×) and 1 (2×) and 2"}, {"measurement": "Pulmonary pathological score, Alveolar wall thickness, Sited 2", "setting": "[2]; [8]", "result": "1 (4×) and 2"}, {"measurement": "Pulmonary pathological score, Alveolar wall thickness, Sited 3", "setting": "[2]; [8]", "result": "1 (3×) and 0 (2×)"}, {"measurement": "Pulmonary pathological score, Inflammation, Sited 1", "setting": "[2]; [8]", "result": "2 (2×) and 1 (3×)"}, {"measurement": "Pulmonary pathological score, Inflammation, Sited 2", "setting": "[2]; [8]", "result": "2 and 3 and 1 (3×)"}, {"measurement": "Pulmonary pathological score, Inflammation, Sited 3", "setting": "[2]; [8]", "result": "1 (3×) and 2 (2×)"}, {"measurement": "Survival rate", "setting": "rats with a lung injury [3]", "result": 100, "unit": "%"}, {"measurement": "IL-1β in serum", "setting": "rats with a lung injury [4]; [9]", "result": "15.41 ± 25.29", "unit": "pg/mL"}, {"measurement": "IL-6 in serum", "setting": "rats with a lung injury [4]; [9]", "result": "0.00 ± 0.00", "unit": "pg/mL"}, {"measurement": "IL-10 in serum", "setting": "rats with a lung injury [4]; [9]", "result": "18.35 ± 9.84", "unit": "pg/mL"}, {"measurement": "TNF-α in serum", "setting": "rats with a lung injury [4]; [9]", "result": "0.00 ± 0.00", "unit": "pg/mL"}, {"measurement": "Change of inflammatory factors in the serum", "setting": "rats with a lung injury [4]; [10]", "result": "significantly decreased to similar levels as the normal control group"}, {"measurement": "Bleeding of the lung under a microscope", "setting": "rats with a lung injury [5]; 0.75 mg/kg i.v. twice, D3", "result": "mildly"}, {"measurement": "Infiltration of the lung by inflammatory cells under a microscope", "setting": "rats with a lung injury [5]; 0.75 mg/kg i.v. twice, D3", "result": "moderately to obviously"}, {"measurement": "Proliferation of alveolar epithelial cells under a microscope", "setting": "rats with a lung injury [5]; 0.75 mg/kg i.v. twice, D3", "result": "mild to moderate"}, {"measurement": "Degree of alveolar wall thickening lesion: number of animals with grade ++", "setting": "rats with a lung injury [5]; [11]", "result": 3}, {"measurement": "Degree of inflammatory cell infiltrating lesion: number of animals with grade ++", "setting": "rats with a lung injury [5]; [11]", "result": 0}, {"measurement": "Degree of alveolar wall thickening lesion: number of animals with grade +++", "setting": "rats with a lung injury [5]; [12]", "result": 3}, {"measurement": "Degree of inflammatory cell infiltrating lesion: number of animals with grade +++", "setting": "rats with a lung injury [5]; [12]", "result": 2}, {"measurement": "Degree of alveolar wall thickening lesion: number of animals with grade ++++", "setting": "rats with a lung injury [5]; [13]", "result": 0}, {"measurement": "Degree of inflammatory cell infiltrating lesion: number of animals with grade ++++", "setting": "rats with a lung injury [5]; [13]", "result": 4}, {"measurement": "Degree of alveolar wall thickening lesion: number of animals with grade +++++", "setting": "rats with a lung injury [5]; [14]", "result": 0}, {"measurement": "Degree of inflammatory cell infiltrating lesion: number of animals with grade +++++", "setting": "rats with a lung injury [5]; [14]", "result": 0}, {"measurement": "Change of inflammatory cell infiltrating lesions", "setting": "rats with a lung injury [5]; in all rats, vs model", "result": "changed from severe and obvious to obvious and moderate"}, {"measurement": "Change of alveolar wall thickness", "setting": "rats with a lung injury [5]; in half of the rats, vs model", "result": "changed from moderate to mild"}, {"measurement": "Degree of lung lesions", "setting": "rats with a lung injury [5]; [10]", "result": "lower than that of the model control group"}, {"measurement": "Degree of alveolar wall thickening lesion: number of animals with grade −", "setting": "rats with a lung injury [5]; [15]", "result": 0}, {"measurement": "Degree of inflammatory cell infiltrating lesion: number of animals with grade −", "setting": "rats with a lung injury [5]; [15]", "result": 0}]}
